For one assay, the system named is L02. In words: Hepatoprotective activity in human L02 cells assessed as reduction in D-galactosamine-induced cell damage at 0.1 to 1000 uM pre-incubated at 37 degC for 24 hrs before D-galactosamine challenge for 24 hrs by SRB method. Format: functional, cell-based. Particulars: Homo sapiens, L02; read-out: EC50; call rule not given here. On the technique in general: In SRB staining, fixed cells bind dye roughly in proportion to their protein.
As for `CC(C)(O)[C@H]1CC[C@@](C)([C@H]2[C@@H](O)[C@H](O)[C@@]3(C)[C@@H]4CC[C@H]5C(C)(C)[C@@H](O[C@@H]6OC[C@@H](O)[C@H](O)[C@H]6O)CC[C@@]56C[C@@]46C[C@H](O)[C@]23CO)O1` (relative stereo), the EC50 (as a rule, the concentration at which the effect is half-maximal) is 48.9 µM.
Same read-out and setting: the value for `CC(C)(O)[C@H]1CC[C@@](C)([C@H]2[C@@H](O)[C@H](O)[C@@]3(C)[C@@H]4CC[C@H]5C(C)(C)[C@@H](O[C@@H]6OC[C@@H](O)[C@H](O)[C@H]6O)CC[C@@]56C[C@@]46C[C@H](O)[C@]23C)O1` was 70.8 µM; that for `CC(C)(O)[C@H]1CC[C@@](C)([C@H]2C(=O)[C@H](O)[C@@]3(C)[C@@H]4CC[C@H]5C(C)(C)[C@@H](O[C@@H]6OC[C@@H](O)[C@H](O)[C@H]6O)CC[C@@]56C[C@@]46C[C@H](O)[C@]23C)O1` (relative stereo) was 78.6 µM.
Still for that read-out and setting: the value for `CC(C)(O)[C@H]1CC[C@@](C)([C@H]2[C@@H](O)[C@H](O)[C@@]3(C)[C@@H]4CC[C@H]5C(C)(C)[C@@H](O[C@@H]6OC[C@@H](O)[C@H](O)[C@H]6O)CC[C@@]56C[C@@]46C[C@@H](O)[C@]23C)O1` (relative stereo) was 61.6 µM; that for `CC(=O)O[C@H]1[C@H](OC(C)=O)[C@@]2(C)[C@@H]3CC[C@H]4C(C)(C)[C@@H](O)CC[C@@]45C[C@@]35C[C@@H](O)[C@]2(C)[C@H]1[C@]1(C)CC[C@H](C(C)(C)O)O1` (mixture of isomers) was 10.7 µM.

The same assay, now with this note: l02.
For `CC(C)(O)[C@H]1CC[C@@](C)([C@H]2C(=O)[C@H](O)[C@@]3(C)[C@@H]4CC[C@H]5C(C)(C)[C@@H](O)CC[C@@]56C[C@@]46C[C@H](O)[C@]23C)O1` (relative stereo), the EC50 result is “Not Active”.
Still for that read-out and setting: the value for `CC(=O)O[C@H]1[C@H](O)[C@H]([C@]2(C)CC[C@H](C(C)(C)O)O2)[C@@]2(C)CC[C@@]34C[C@@]35CC[C@H](O[C@@H]3OC[C@@H](O)[C@H](O)[C@H]3O)C(C)(C)[C@@H]5CC[C@H]4[C@]12C` was “Not Active”.
Take `CC(=O)OC[C@]12CC[C@@]34C[C@@]35CC[C@H](O[C@@H]3OC[C@@H](O)[C@H](O)[C@H]3O)C(C)(C)[C@@H]5CC[C@H]4[C@]1(C)[C@@H](O)[C@H](OC(C)=O)[C@@H]2[C@]1(C)CC[C@H](C(C)(C)O)O1`: the EC50 entry is “Not Active”.

These data come from ChEMBL document CHEMBL3608205, “Eight new cycloartane triterpenoids from Beesia calthifolia with hepatoprotective effects against D-galactosamine induced L02 cell damage” (Bioorg Med Chem Lett, 2015).
